Laboratory results reported in publication PMC3062375 (Biochemistry, 2011).
Non-standard residues stand in square brackets, D forms with d. Residues, ends and D or L forms follow the SMILES beside them. No end group written: not given here. pS = N[C@@H](COP(=O)(O)O)C(=O)O

Target: T1, S100A11 protein (Sus scrofa, UniProt P31950)
T1 sequence (P31950 1-99): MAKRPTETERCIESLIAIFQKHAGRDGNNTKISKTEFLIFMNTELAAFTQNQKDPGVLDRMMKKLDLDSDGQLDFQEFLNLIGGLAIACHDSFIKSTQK
Experiment: Tryptophan fluorescence titration of peptide binding to S100A11
Parameters: species or system porcine

Row | Compound | Kd [µM]
1 | CC[C@H](C)[C@H](NC(=O)[C@H](Cc1ccccc1)NC(=O)[C@H](Cc1c[nH]c2ccccc12)NC(=O)[C@H](C)NC(=O)[C@H](CCC(N)=O)NC(=O)[C@H](CCCCN)NC(=O)[C@H](CC(C)C)NC(=O)[C@H](Cc1ccccc1)NC(=O)[C@H](CCC(=O)O)NC(=O)[C@H](COP(=O)(O)O)NC(=O)[C@@H](NC(=O)[C@H](CCSC)NC(=O)[C@H](C)NC(C)=O)C(C)C)C(=O)N[C@@H](CCC(=O)O)C(=O)N[C@@H](CC(N)=O)C(=O)N[C@@H](CCC(=O)O)C(=O)N[C@@H](CCC(=O)O)C(=O)N[C@@H](CCC(N)=O)C(=O)O [Ac1−18P, Ac-AMV[pSer]EFLKQAWFIENEEQ] (Ac-AMV[pS]EFLKQAWFIENEEQ-OH) | 56.8 ± 1
2 | Ac-AMVSEFLKQAWFIENEEQ [Ac1−18, Ac-AMVSEFLKQAWFIENEEQ] | 2.1 ± 0.2
